Measured values published in patent US10912788B2, “Methods and compositions for preventing and treating conditions related to alpha-synuclein” (PurePharm, Inc., priority 2018, dated 2021).

What was measured:
[1] = test system: PD patients with chronic constipation; experiment: Open-label pilot study of GlcNAc (Villicote) on motor and constipation symptoms in Parkinson's Disease; type: in vivo, human
Description: Participants were enlisted in a movement disorders outpatient clinic in Toronto, Canada. Inclusion criteria were a diagnosis of PD according to UK PD society brain bank criteria and chronic constipation that was not improved by laxatives. Exclusion criteria were the co-occurrence of conditions biasing results and/or changes of medications (including anti-constipation drugs).
This was an open-label study that sought to evaluate the efficacy of GlcNAc (Villicote®, Wellesley Therapeutics Inc.) on PD patients with chronic constipation who have previously used laxatives to relieve symptoms of constipation, to little or no avail. […] The self-reported assessments evaluated motor condition and dysfunction (fluctuation and dyskinesia) using section IV of the Unified Parkinson's Disease Rating Scale (UPDRS IV) and asking about presence and frequency of delayed onset (Delayed ON) and Failure of “on” response (no ON); Perceived severity and improvement in of motor dysfunction, and constipation by means of both Patients' Global Impression-Severity (PGI-S) and Patients' Global Impressions of Change (PGI-C) scale accordingly. Severity of Constipation was also evaluated by means of questions 5 and 6 of SCOPA-AUT [17] and the Constipation Scoring System (CSS). In addition, side-effects experienced while on Villicote and qualitative feedback on the product was noted.
Their age and disease duration was 65.7±7.5 and 11.7±5.1 years, respectively. Mean UPDRS-III at study entry was 22.1±10.9.

[2] = cited from earlier work
[3] = test system: pediatric treatment-resistant inflammatory bowel disease (Crohn's disease and ulcerative colitis patients); conditions: oral administration; reduced symptoms of gut inflammation, increased sulphated GAG expression; cited from earlier work
[4] = PD patients treated with GlcNAc
[5] = PD patients treated with GlcNAc, motor fluctuations

## CC(=O)N[C@H]1C(O)O[C@H](CO)[C@@H](O)[C@@H]1O (some centres unmarked) [GlcNAc, N-acetylglucosamine]
[1]; After GlcNAc, 1 month time point, PD patients, before GlcNAc 0.0
  No-ON: 0.0
[1]; After GlcNAc, 1 month time point, PD patients, before GlcNAc 0.1 ± 0.4
  Delayed-ON: 0.1 ± 0.4
[1]; After GlcNAc, 1 month time point, PD patients, before GlcNAc 3.9 ± 1.9
  SCOPA-AUT (questions 5 and 6): 3.1 ± 1.7
[1]; After GlcNAc, 1 month time point, PD patients, before GlcNAc 3.9 ± 2.4
  UPDRS-IV: 3.9 ± 2.4
[1]; After GlcNAc, 1 month time point, PD patients, before GlcNAc 9.4 ± 6.1, Wilcoxon Z=−2.043, P=0.041
  CSS (Constipation Scoring System): 6.5 ± 3.9
[1]; PD patients
  tolerability: well-tolerated
[1]; PD patients failing drugs for constipation
  anti-constipation effect: effective anti-constipation agent
[1]; [4]
  PGI-I Constipation: 1.6 ± 1.4
  PGI-S Constipation: 2.8 ± 1.3
[1]; [5]
  PGI-I Fluctuation: 0
  PGI-S Fluctuation: 0.8 ± 0.9
[1]; PD patients, short follow-up
  effect on motor functions: No effect was observed
[2]
  solubility in water: 25%
[3]
  efficacy in pediatric treatment-resistant inflammatory bowel disease: therapeutic efficacy
